Biological target: T1, DNA polymerase theta [1792-2590] (UniProt O75417)
T1 construct: 1792-2590
T1 sequence (O75417 whole entry): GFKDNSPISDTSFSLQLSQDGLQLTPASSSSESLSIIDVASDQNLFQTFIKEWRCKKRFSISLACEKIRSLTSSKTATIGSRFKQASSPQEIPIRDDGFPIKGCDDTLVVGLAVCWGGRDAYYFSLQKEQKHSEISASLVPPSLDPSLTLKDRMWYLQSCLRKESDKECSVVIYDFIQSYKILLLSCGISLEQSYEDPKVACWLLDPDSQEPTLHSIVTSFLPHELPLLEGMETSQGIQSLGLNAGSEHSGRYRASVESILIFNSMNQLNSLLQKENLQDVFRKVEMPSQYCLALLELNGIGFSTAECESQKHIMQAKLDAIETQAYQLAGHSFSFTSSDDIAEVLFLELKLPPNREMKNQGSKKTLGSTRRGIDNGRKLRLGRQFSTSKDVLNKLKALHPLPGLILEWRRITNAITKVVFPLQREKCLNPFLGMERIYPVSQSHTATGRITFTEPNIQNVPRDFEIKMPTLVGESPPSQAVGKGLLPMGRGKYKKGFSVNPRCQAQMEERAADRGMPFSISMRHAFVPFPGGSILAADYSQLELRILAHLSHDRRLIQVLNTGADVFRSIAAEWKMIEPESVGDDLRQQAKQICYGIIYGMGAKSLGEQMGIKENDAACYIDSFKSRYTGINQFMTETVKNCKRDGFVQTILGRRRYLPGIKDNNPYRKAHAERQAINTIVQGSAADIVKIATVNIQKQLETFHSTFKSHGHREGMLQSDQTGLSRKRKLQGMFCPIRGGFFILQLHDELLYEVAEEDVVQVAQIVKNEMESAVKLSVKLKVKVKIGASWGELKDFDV
Assay: ADP-Glo Kinase Assay
Procedure: The ability of compounds to inhibit Pol 0 polymerase activity was determined by the PicoGreen method in vitro.The His-TEV-SUMO-tagged Polθ protein (amino acids 1792-2590) expressed in E. coli was purified and stored in aliquots at −80° C.The composition of the assay buffer is 25 mM Tris HCl pH 7.5, 12.5 mM NaCl, 0.5 mM MgCl2, 5% glycerol, 0.01% Triton X-100, 0.01% BSA, and 1 mM DTT.Test compounds were diluted in 100% DMSO and diluted three-fold into 10 concentration points in a dilution plate (Greiner-781280) using Bravo (Agilent) according to concentration requirements. The compounds diluted in DMSO were then diluted 20-fold in the assay buffer using Bravo. Further, 2 μl of diluted compounds were transferred to the assay plate (Corning-4512) using Bravo. The purified Pol 0 enzyme and primers ((primer strand: 5′-GCGGCTGTCATAAG-3′, SEQ ID NO: 1):(template strand: 5′-[…]-3′, SEQ ID NO: 2)=1:1.1) were prepared at a working concentration of 2.5× (1.5 nM Polθ and 50 nM PTD) in the assay buffer, transferred to the assay plate at 4 μl per well using an E1-CLIPTIP 12-channel pipette (Thermo, 1-30 l), and incubated at room temperature for 30 min. dNTP (Sigma-D7295) was diluted with the assay buffer to a working concentration of 2.5× (40 uM dNTP), transferred to the assay plate at 4 μl per well (final DMSO concentration of 1%) using an El-CLIPTIP 12-channel pipette (Thermo, 1-30 l), and incubated at room temperature for 60 min. A mixture containing 10 mM EDTA, 25 mM Tris pH 7.5, and a 1:200 diluted PicoGreen dye (Invitrogen-P7581) was added to the assay plate at 6 μl per well to stop the reaction. After 30 min of reaction at room temperature in the dark, fluorescence values were read on EnVision 2105 (PerkinElmer) using the Ex480 nm Em520 nm program, and the raw data was analyzed using XLfit to generate IC50 values.

Structure (SMILES)	IC50 [nM]
CN(C(=O)[C@@H]1CNC(=O)N1c1cc(C(F)(F)F)c2c(n1)C=CC2)c1ccc(F)c(Cl)c1F [US20250066368, Compound 21]	< 50
CN(C(=O)[C@@H]1[C@H](O)[C@H](O)C(=O)N1c1cc(C(F)(F)F)c2c(n1)CCC2)c1cc(Cl)c(F)cc1F [US20250066368, Compound 7]	< 50
[2H]C([2H])([2H])N(C(=O)[C@@H]1[C@H](O)[C@H](O)C(=O)N1c1cc(C(F)(F)F)c2ncsc2n1)c1cc(Cl)c(F)cc1F [US20250066368, Compound 26]	< 50
[2H]C([2H])([2H])N(C(=O)[C@@H]1[C@H](O)[C@H](O)C(=O)N1c1cc(C(F)(F)F)c2c(n1)C(=O)CC2)c1cc(Cl)c(F)cc1F [US20250066368, Compound 45]	< 50
[2H]C([2H])([2H])N(C(=O)[C@@H]1[C@H](O)[C@H](O)C(=O)N1c1cc(C(F)(F)F)c2c(n1)CC=C2)c1cc(Cl)c(F)cc1F [US20250066368, Compound 19]	< 50
[2H]C([2H])([2H])N(C(=O)[C@@H]1[C@H](O)[C@H](O)C(=O)N1c1cc(C(F)(F)F)c2cc[se]c2n1)c1cc(Cl)c(F)cc1F [US20250066368, Compound 46]	< 50
[2H]C([2H])([2H])N(C(=O)C1[C@H](O)[C@H](O)C(=O)N1c1cc(C(F)(F)F)c2ccsc2n1)c1cc(Cl)c(F)cc1F (some centres not stated) [US20250066368, Compound 16]	< 50
